Columns and labels:
SIRT1 [1] = target: T1, SIRT1 (Homo sapiens, UniProt Q96EB6); test: TAMRA based mass spectrometry assay of SIRT1 activity; type: biochemical; settings: for TAMRA EC1.5 (μM) / TAMRA EC1.5: concentration giving 150% activation of SIRT1; for Emax: percent maximum fold activation, read-out: TAMRA % Fold Act
T1 sequence (Q96EB6 1-747): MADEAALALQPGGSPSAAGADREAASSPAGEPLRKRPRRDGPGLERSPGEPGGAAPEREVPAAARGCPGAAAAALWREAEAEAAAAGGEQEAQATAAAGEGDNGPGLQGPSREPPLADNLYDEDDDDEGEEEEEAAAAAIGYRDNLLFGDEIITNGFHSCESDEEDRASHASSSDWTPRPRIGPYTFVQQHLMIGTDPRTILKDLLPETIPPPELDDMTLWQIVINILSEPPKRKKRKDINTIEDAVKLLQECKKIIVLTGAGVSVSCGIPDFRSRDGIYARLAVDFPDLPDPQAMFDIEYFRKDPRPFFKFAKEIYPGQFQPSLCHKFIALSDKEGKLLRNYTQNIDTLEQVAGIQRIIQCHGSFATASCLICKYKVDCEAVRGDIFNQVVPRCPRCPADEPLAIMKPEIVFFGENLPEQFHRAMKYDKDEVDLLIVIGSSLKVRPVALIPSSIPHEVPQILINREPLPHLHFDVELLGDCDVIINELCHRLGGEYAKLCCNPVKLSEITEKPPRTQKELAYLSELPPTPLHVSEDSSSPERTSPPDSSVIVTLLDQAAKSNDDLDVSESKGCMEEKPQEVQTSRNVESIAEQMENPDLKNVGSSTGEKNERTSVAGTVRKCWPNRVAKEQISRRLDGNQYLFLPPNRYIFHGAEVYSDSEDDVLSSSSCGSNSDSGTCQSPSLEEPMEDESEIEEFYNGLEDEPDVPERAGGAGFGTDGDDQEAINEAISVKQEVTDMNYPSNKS
How it was run: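 Recombinant N-terminal His-tagged human SIRT1 (10 nM, E. coli) incubated 25 min at 25 °C with 0.5 μM 5TMR-labelled p53-derived acetyl-peptide and 120 μM βNAD+ in Tris-acetate pH 8 buffer with DTT and 0.05% BSA, compound at varying concentrations. Stopped with formic acid; deacetylated peptide or OAADPR measured by mass spectrometry relative to DMSO controls.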

SIRT1 [2] = target: T1, SIRT1; test: Trp mass spectrometry assay of SIRT1 activity; type: biochemical; settings: for Trp EC1.5 (μM) / Trp EC1.5: concentration giving 150% activation of SIRT1; for Emax: percent maximum fold activation, read-out: Trp % Fold Act
How it was run: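 His-tagged SIRT1 expressed in E. coli BL21(DE3), 10 nM, incubated 25 min at 25° C. with 0.5 μM Ac-RHKK(Ac)W-NH2 peptide and 120 μM βNAD+ in 50 mM HEPES pH 7.5, […], 1 mM DTT, 0.05% BSA; formic acid stop. OAADPR or deacetylated peptide measured by mass spectrometry; EC1.5 and percent maximum activation versus DMSO control.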

| Structure (SMILES) | TAMRA EC1.5 (μM) (SIRT1 [1]; TAMRA assay) | Emax (SIRT1 [1]; TAMRA assay) | Trp EC1.5 (μM) (SIRT1 [2]; Trp assay) | Emax (SIRT1 [2]; Trp assay) | TAMRA EC1.5 (SIRT1 [1]; TAMRA peptide substrate) | Emax (SIRT1 [1]; TAMRA peptide substrate) | Trp EC1.5 (SIRT1 [2]; Trp peptide substrate) | Emax (SIRT1 [2]; Trp peptide substrate) |
| --- | --- | --- | --- | --- | --- | --- | --- | --- |
| Cc1nccc(C(=O)Nc2cnn3ccc(-c4ccccc4C(F)(F)F)nc23)n1 [Compound 794] | A (EC1.5<1 μM) | ≥ 350% | B (EC1.5 1-25 μM) | < 350% |  |  |  |  |
| O=C(Nc1ccc(CN2CCCC2)cn1)c1cnc2ccc(-c3ccccc3C(F)(F)F)nn12 [Compound 248] | B (EC1.5 1-25 μM) | ≥ 350% | B (EC1.5 1-25 μM) | < 350% |  |  |  |  |
| Cc1nc2ccc(-c3ccccc3C(F)(F)F)nn2c1NC(=O)c1ccncn1 [Compound 377] | B (EC1.5 1-25 μM) | < 350% | C (EC1.5>25 μM) | < 350% |  |  |  |  |
| Cc1cc(C)nc(NC(=O)c2cnc3ccc(N4CC[C@H](F)C4)nn23)c1 [Compound 490] |  |  |  |  | B (EC1.5 1-25 μM) | ≥ 350% | B (EC1.5 1-25 μM) | < 350% |
| Cc1nc2ccc(-c3ccccc3OC[C@H](O)CO)nn2c1C(=O)Nc1ccccn1 [Compound 815, (R)-6-(2-(2,3-dihydroxypropoxy)phenyl)-2-methyl-N-(pyridin-2-yl)imidazo[1,2-b]pyridazine-3-carboxamide] | A (EC1.5<1 μM) | ≥ 350% | A (EC1.5<1 μM) | ≥ 350% |  |  |  |  |
| Cc1cc(NC(=O)c2cnc3ccc(-c4ccccc4OC(F)(F)F)nn23)nc(C)n1 [Compound 398] |  |  |  |  | A (EC1.5<1 μM) | ≥ 350% | B (EC1.5 1-25 μM) | < 350% |

Reference: patent US9957271B2, “Substituted bicyclic aza-heterocycles and analogues as sirtuin modulators” (GlaxoSmithKline, LLC, priority 2012, dated 2018)
